# Reference: patent publication US20210340130A1, “Compositions and methods for treating attention deficit disorders” (priority 2016, published 2021)
# What was measured:
# [1] = tested on: hippocampal LTP (hilus of the dentate gyrus); test: Effect on induction of LTP in rat hippocampus (anesthetized rat, in vivo); set-up: species or system Rat (Long Evans); conditions: for Minimum Effective Dose: IP
# [2] = tested on: Rat (SD); test: Radial arm maze - spatial memory; type: in vivo; conditions: for Minimum Effective Dose: IP
# Method: Yet another animal model for evaluating ampakine drug activity employed herein is the well known and widely accepted Radial Arm Maze model. CX717 was tested for its ability to improve the performance of aged rats in an eight-arm radial maze using a cross-over design study. This behavioral test uses a standard eight-arm radial maze wherein five arms were open and baited with food pellets for the first morning session. Each animal was allowed to consume the food rewards present in the open arms and was then returned to its home cage. Six hours later animals were returned to the maze, wherein all eight-arms were open, but only the three arms previously closed contained food rewards. Scoring was based on the number of correct choices before an incorrect choice (re-entering an arm that was visited during the morning acquisition session) was made and on the total number of incorrect choices made before all three of the still baited arms were visited. CX717 was tested at six doses (0.03, 0.1, 0.3, 1, 3 and 10 mg/kg in hydroxypropyl β-cyclodextran, i.p.), administered 30 min prior to the start of the morning acquisition session and no drug was given prior to the second trial six hours later.
# For CX1739 male Sprague-Dawley rats were trained to perform the win shift assay on the radial arm maze for approximately 10 weeks prior to the study. On each day of training and testing, each rat completed one trial, split into a sample phase and a test phase. During the sample phase, the rat was placed on a 12-arm radial arm maze surrounded by visual cues. Food wells at the end of each arm were baited with sucrose pellets but access to three arms, selected randomly, was blocked with a clear plastic divider at the arm entrance. The rat was allowed 5 minutes to search the maze and collect the available food pellets before being removed from the maze. Fifteen minutes later the rat was returned to the maze for the test phase of the trial. During the test phase, the rat was allowed access to all 12 arms of the maze but only the arms that had been blocked previously were baited with sucrose pellets. The rat was allowed 3 minutes to collect the available food pellets before being removed from the maze. On test days, rats were injected with CX1739 (0.03-1.0 mg/kg, i.p.) or vehicle immediately following the sample phase of the study. The primary dependent measure was the cumulative number of arm entries prior to entering the first, second, and third baited arm during the test phase.
# [3] = tested on: aged Rhesus macaque monkeys; test: Delayed match-to-sample test; type: in vivo, Monkey (Rhesus); conditions: for Minimum Effective Dose: PO
# Method: Further elucidating the potent behavioral and cognitive effects of exemplary ampakines useful within the invention, additional studies using the well known Monkey Delayed Match to Sample assay were conducted. CX1739 was evaluated using aged Rhesus macaque monkeys (18 to 33 years old), undertaking the delayed match-to-sample (DMTS) task. The stimuli included red, blue, or yellow rectangles. A trial was initiated by presentation of a sample rectangle composed of one of the three colors. The sample rectangle remained in view until the monkey touched within its borders to initiate a pre-programmed delay (retention) interval. Following the delay interval, two choice rectangles were presented, with one of the two choice colors being the color matching the stimulus and the other (incorrect) color as one of the two remaining colors. A correct (matching) choice was reinforced. Non-matching choices were neither reinforced nor punished. The duration for each delay interval was adjusted for each subject until […] of group performance accuracy approximated zero delay (85-100% of trials answered correctly), short delay interval (75-84% correct), medium delay interval (65-74% correct), and long delay interval (55-64% correct). The inter-trial interval was 5 seconds and each session consisted of 96 trials.
# [4] = tested on: Mouse (CD1); test: Amphetamine-stimulated locomotion in mice; type: in vivo; conditions: for Minimum Effective Dose: IP, dose range 5.6-30 mg/kg; for amphetamine-stimulated locomotion, pre-treatment: amphetamine 2 mg/kg i.p.
# Method: Effects of exemplary low impact ampakines were also evaluated in mice for the ability to inhibit amphetamine-stimulated locomotor activity. Mice were placed in the locomotor chamber for 20 min to habituate, removed, injected with either vehicle or anti-ADHD ampakine (CX717), and 5 min later injected with 2 mg/kg i.p. Amphetamine. Mice were returned to the locomotor chamber 10 min later, and their activity measured for a further 15 min. In related studies, adult male CD1 mice or male Sprague-Dawley rats were acclimated in a test chamber for 20 minutes removed and dosed i.p. (mice) or orally (rats) with CX1739, vehicle, or a reference compound. Five (mice) or 10 (rats) were then injected with amphetamine (2 mg/kg, i.p.) or saline vehicle and were returned to the activity test chamber.
# [5] = tested on: Male Sprague-Dawley rats; test: Spontaneous locomotor activity (LMA) and rearing in rats; type: in vivo
# Method: Behavioral tests of locomotor activity were conducted to determine the effects of exemplary low impact ampakines CX717 and CX1739 on normal, and amphetamine-stimulated activity in animal behavioral models. […] Male Sprague-Dawley rats (175-200 g; Charles River Laboratories) were given ad libitum food and water and maintained on a 12:12 hr light: dark cycle with lights on at 6:00 a.m. Each of ten test cages (standard polycarbonate animal cage; 26 cm×48 cm×20 cm; W×L×H) were surrounded by two photo beam arrays, placed to detect locomotor activity with a lower array and rearing behavior with an upper array. Locomotor and rearing activity were continuously monitored and recorded by computer for all ten test cages (Photo beam Activity System, San Diego Instruments, San Diego, Calif.). The test period was chosen as the 1st few hours of the dark period of the light: dark cycle. Approximately 15 min before the start of the dark cycle, the rats were removed from the housing facility, transported to the testing room and injected with CX717, CX1739 or vehicle and placed into photo beam activity cages. Immediately after all rats were injected the room lights were turned off and spontaneous activity data were collected for the next four hours. CX717 and CX1739 groups (0.1 to 10 mg/kg) were compared to the vehicle group.
# [6] = Phase 1 studies (safety, tolerability, pharmacokinetics); type: in vivo
# [7] = tested on: 64 GPCRs; test: Cell-based functional GPCR assays (Table 4.2.2-1); conditions: agonist at 30 μM, antagonist at 37.5 μM; 64 functional GPCR assays
# Method: Additional studies involving G-protein coupled receptor assays were conducted for CX1739 to further illustrate the scope and flexibility of binding activity profiling available for ampakine screening according to the invention. CX1739 was evaluated in a second broad in vitro pharmacology screen, comprising cell-based functional G-protein coupled receptor assays for 64 GPCRs, identified in Table 4.2.2-1 below.
# [8] = tested on: non-selective alpha1 adrenergic receptor; test: Radioligand binding, alpha1 adrenergic receptor; conditions: 100 μM
# [9] = aged rats, eight-arm maze, 0.03-10 mg/kg i.p.
smiles,measurement,setting,value
"O=C(c1ccc2nonc2c1)N1CCOCC1 [CX717, 1-(benzofurazan-5-ylcarbonyl)morpholine]",enhancement of hippocampal LTP relative to baseline,"[1]; 2 mg/kg, after the tetanus, P<0.01",200%
same,Minimum Effective Dose,[1],2 mg/kg
same,Minimum Effective Dose,[2],0.3 mg/kg
same,doses with highly significant difference in performance between drug and vehicle days,"[2]; Kruskal-Wallace P=0.008, Wilcoxon Signed Rank Test",≥ 0.3 mg/kg
same,number of correct choices (before making an error) in the second maze session,[2]; [9],dose-dependent increase
same,total number of errors,[2]; [9],decrease
same,Minimum Effective Dose,[3],0.8 mg/kg
same,Minimum Effective Dose,[4],18 mg/kg
same,"amphetamine-stimulated locomotion, pre-treatment",[4],inhibited amphetamine-stimulated locomotion in mice in a dose-dependent manner
same,spontaneous rearing,"[5]; 10 mg/kg vs. vehicle, p<0.01",significant decrease
same,pharmacodynamics of the effect on rearing behavior,"[5]; 10 mpk, 1, 2, 3 and 4 hours post treatment",prolonged action
same,spontaneous locomotor activity,"[5]; first hour following ip administration, ANOVA=0.45",no effect
same,absorption,[6]; human,dose-proportional manner
same,half-life,"[6]; human, in vivo, read-out: elimination half-life (t1/2)",9 to 10 h
same,Tmax,"[6]; human, in vivo, read-out: time-to-maximum concentration (tmax)",4 to 5 h
same,tolerability in healthy volunteers,[6]; in vivo,well-tolerated with no serious AEs
"CN(C(=O)c1ccc2nonc2c1)C1CCOCC1 [CX1739, N-Methyl-N-tetrahydro-2H-pyran-4-yl-[2,1,3]-benzoxadiazole-5-carboxamide]",effect on LTP,"[1]; 3 mg/kg, p<0.01",statistically significant increase in LTP
same,Minimum Effective Dose,[1],3 mg/kg
same,entries before finding the third arm with a food pellet reward,"[2]; 0.3 mg/kg, 12-arm maze, p<0.05",significantly fewer entries
same,Minimum Effective Dose,[2],0.3 mg/kg
same,optimal dose (dose producing the maximal effect) in the maze assay,[2]; ip,0.3 mg/kg
same,Minimum Effective Dose,[3],0.3 mg/kg
same,performance with medium or long delays,"[3]; oral, 45 min prior to testing",did not improve performance
same,mean accuracies during short delay trials relative to vehicle,"[3]; oral, 45 min prior to testing, particularly the two higher doses, persisted at 24 hours",increased
same,task accuracy at the Best Dose,"[3]; sessions 45 min after administration, P=0.027, restricted to long delay trials",statistically significant increase in task accuracy
same,amphetamine-stimulated locomotion,[4]; 30 mg/kg ip,significant decrease
same,Minimum Effective Dose,[4],30 mg/kg
same,"amphetamine-stimulated locomotion, pre-treatment",[4],inhibited amphetamine-stimulated locomotion in mice in a dose-dependent manner
same,GPCR agonist and antagonist activity,[7],did not exhibit any significant agonist or antagonist activity
same,inhibition of binding of a reference ligand,[8],67%
